Values quoted from earlier work as cited in paper PMC9307173, “OX2R-selective orexin agonism is sufficient to ameliorate cataplexy and sleep/wake fragmentation without inducing drug-seeking behavior in mouse model of narcolepsy” (PLoS ONE, 2022).
“Also recorded” adds a separate entry of the source.

Legend:
addiction-like behaviors = details: OX1R-selective antagonist
Text: Orexin also activates the reward system. Orexin neurons in the LH project to the dopaminergic reward system in the ventral tegmental area (VTA), and promote the dopamine release in the nucleus accumbens and the prefrontal cortex, potentially inducing addiction-like behaviors and reinforcing effects. Orexin-mediated neural signaling also contributes to the development of addiction to drugs of abuse such as cocaine, morphine and nicotine. Anatomically, both OX1R and OX2R are present in VTA, with dopaminergic neurons predominantly expressing OX1R ...

[1] = tested on: orexin knockout and orexin neuron-ablated mice; set-up: method as in PMID 28507129

Row | Compound | addiction-like behaviors induced by drugs of abuse or OXA (in words) (addiction-like behaviors) | wakefulness promotion (in words) ([1]; mouse models of narcolepsy) | cataplexy-like episodes (in words) ([1]; mouse models of narcolepsy / OXKO mice) | wake fragmentation (in words) ([1]; narcoleptic model mice / OXKO mice)
1 | Cc1nc2ccc(NC(=O)Nc3ccnc4cccnc34)cc2o1 [SB334867] | inhibited | – | – | –
2 | COc1ccc(-c2cccc(C(=O)N(C)C)c2)cc1S(=O)(=O)Nc1cccc(NCCNC(=O)c2ccccc2N(C)C)c1 [YNT-185] | – | promotes wakefulness | effectively suppressed cataplexy-like episodes; also recorded: ameliorates cataplexy-like episodes | did not appreciably ameliorate the wake fragmentation; also recorded: did not sufficiently suppress the active-phase fragmentation of wakefulness
